PMC9506420, “Biological Evaluation of 3-Azaspiro[Bicyclo[3.1.0]Hexane-2,5′-Pyrimidines] as Potential Antitumor Agents” (International Journal of Molecular Sciences, 2022)
Read-outs that look alike come from different tables or passages of the source.

Columns and labels:
Type in all cases: cell-based
[1] = test system: human erythroleukemia (K562) cell line; test: MTS antiproliferative (cytotoxicity) assay, K562; details: for SI (selectivity index), K562: Vero as reference cell line
Method: (§1) The cytotoxicity of synthesized 3-azaspiro[bicyclo[3.1.0]hexane-2,5′-pyrimidines] 4 against human erythroleukemia (K562), cervical carcinoma (HeLa), and T lymphocyte (Jurkat), as well as mouse colon carcinoma (CT26) and African green monkey kidney epithelial (Vero) cell lines as reference, was evaluated in vitro by the standard MTS assay for 24 and 72 h.
(§2) All the cell lines (human cervical carcinoma (HeLa), erythroleukemia (K-562), and T lymphocyte (Jurkat) as well as mouse colon carcinoma (CT26) and African green monkey kidney epithelial (Vero)) were obtained from the cell repository “Vertebrate cell culture collection” (supported by the Ministry of Science and Higher Education of the Russian Federation, agreement №075-15-2021-683, Institute of Cytology, Russian Academy of Sciences, Saint Petersburg, Russia). HeLa, Jurkat, and Vero cells were cultured in DMEM (HyClone, South Logan, UT, USA) supplemented with 10% (v/v) fetal bovine serum (Hyclone, GE Healthcare Life Sciences, Logan, UT, USA), and gentamicin (Sigma-Aldrich, St. Louis, MO, USA) at 37 °C in a humidified atmosphere with 5% CO2. K-562 and CT26 cells were grown at RPMI medium (Hyclone, GE Healthcare Life Sciences, Logan, UT, USA), with the same supplements and conditions.
(§3) To evaluate the in vitro toxicity of compounds synthesized, cells were seeded into 96-well plates at a density of 5 × 10^3 cells per well. On the next day, tested compounds were added to the wells at concentrations ranging from […], followed by incubation for 1 and 3 days. Cell proliferation was determined by adding 20 μL of MTS reagent (BioVision, Milpitas, CA, USA) stock solution per well. Each plate was incubated for 2 h at 37 °C in a humidified, 5% CO2 atmosphere. The plates were then read at 495 nm using plate spectrophotometer (Multiskan GO, Thermo Fisher Scientific, Waltham, MA, USA). All samples were measured in triplicates.

[2] = test system: human cervical carcinoma (HeLa) cell line; test: MTS antiproliferative (cytotoxicity) assay, HeLa; details: for SI (selectivity index), HeLa: Vero as reference cell line
Method: as §1, §2, §3

[3] = test system: mouse colon carcinoma (CT26) cell line; test: MTS antiproliferative (cytotoxicity) assay, CT26; details: for SI (selectivity index), CT26: Vero as reference cell line
Method: as §1, §2, §3

[4] = test system: African green monkey kidney epithelial (Vero) cell line; test: MTS antiproliferative (cytotoxicity) assay, Vero (reference)
Method: as §1, §2, §3

[5] = test system: human T lymphocyte (Jurkat) cell line; test: MTS antiproliferative (cytotoxicity) assay, Jurkat; details: for IC50: Homo sapiens, MTS
Method: (§4) The cytotoxicity of synthesized 3-azaspiro[bicyclo[3.1.0]hexane-2,5′-pyrimidines] 4 against human erythroleukemia (K562), cervical carcinoma (HeLa), and T lymphocyte (Jurkat), as well as mouse colon carcinoma (CT26) and African green monkey kidney epithelial (Vero) cell lines as reference, was evaluated in vitro by the standard MTS assay for 24 and 72 h. The results are presented in Figure 1, Figure 2, Figure 3, Figure 4 and Figure 5 (data on all, tested on K562, HeLa, and CT26 cell lines’ compounds, are given at SI, Figures S1–S3). […] Replacement of the phenyl group by either the carboxymethyl or N-isopropylcarbamoyl group has led to a significant decrease in the activity of spiro-fused cycloadducts comprising azabicyclo[3.1.0]hexane and alloxane moieties.
as §2, §3

[6] = test system: K562, Jurkat, HeLa, CT26 and Vero cell lines; test: MTS antiproliferative screening, all tested cell lines; details: compared with phenyl substituted adducts
Method: as §4, with “moieties. […]” for “moieties.”
To evaluate the in vitro toxicity of compounds synthesized, cells were seeded into 96-well plates at a density of 5 × 10^3 cells per well. […] Cell proliferation was determined by adding 20 μL of MTS reagent (BioVision, Milpitas, CA, USA) stock solution per well. […] The plates were then read at 495 nm using plate spectrophotometer (Multiskan GO, Thermo Fisher Scientific, Waltham, MA, USA). All samples were measured in triplicates.

[7] = Homo sapiens, K562, 24 h, read-out: IC50, K562, 24 h
[8] = Homo sapiens, K562, 72 h, read-out: IC50, K562, 72 h
[9] = Homo sapiens, HeLa, 24 h, read-out: IC50, HeLa, 24 h
[10] = Homo sapiens, HeLa, 72 h, read-out: IC50, HeLa, 72 h
[11] = Mus musculus, CT26, 24 h, read-out: IC50, CT26, 24 h
[12] = Mus musculus, CT26, 72 h, read-out: IC50, CT26, 72 h
[13] = Chlorocebus sabaeus, Vero, 24 h, read-out: IC50, Vero, 24 h
[14] = Chlorocebus sabaeus, Vero, 72 h, read-out: IC50, Vero, 72 h

Row | Compound | SI (selectivity index), K562 ([1]; K562) | SI (selectivity index), HeLa ([2]; HeLa) | SI (selectivity index), CT26 ([3]; CT26) | IC50 [1, 7] [µM] | IC50 [1, 8] [µM] | IC50 [2, 9] [µM] | IC50 [2, 10] [µM] | IC50 [3, 11] [µM] | IC50 [3, 12] [µM] | IC50 [4, 13] [µM] | IC50 [4, 14] [µM] | also measured
1 | N.N.[Cl][Pt][Cl] [Cisplatin, reference compound] | 0.3 | 0.7 | 0.8 | – | – | – | – | – | – | – | – | IC50 ([1]; MTS, 24 h, read-out: IC50, K562, 24 h): 46 ± 8 µM; IC50 ([1]; MTS, 72 h, read-out: IC50, K562, 72 h): 14 ± 2 µM; IC50 ([2]; MTS, 24 h, read-out: IC50, HeLa, 24 h): 16 ± 4 µM; IC50 ([2]; MTS, 72 h, read-out: IC50, HeLa, 72 h): 6 ± 1 µM; IC50 ([3]; MTS, 24 h, read-out: IC50, CT26, 24 h): 24 ± 4 µM; IC50 ([3]; MTS, 72 h, read-out: IC50, CT26, 72 h): 5 ± 1 µM; IC50 ([4]; MTS, 24 h, read-out: IC50, Vero, 24 h): 14 ± 1 µM; IC50 ([4]; MTS, 72 h, read-out: IC50, Vero, 72 h): 4 ± 1 µM
2 | O=C1NC(=O)C2(NC[C@@]3(c4ccccc4)[C@H](c4ccccc4)[C@@]23c2ccccc2)C(=O)N1 [Compound 4a] | 1.0 | 0.2 | 0.3 | 47 ± 8 | 14 ± 1 | 125 ± 18 | 70 ± 4 | 64 ± 7 | 50 ± 7 | 50 ± 14 | 14 ± 2 | IC50 ([5]; 24 h, read-out: IC50, Jurkat, 24 h): 24 ± 2 µM; IC50 ([5]; 72 h, read-out: IC50, Jurkat, 72 h): 19 ± 5 µM; SI (selectivity index), Jurkat ([5]; Vero as reference cell line): 0.8; relative antiproliferative activity (structure-activity comparison) [6]: less active
3 | C[C@@H]1NC2(C(=O)NC(=O)NC2=O)[C@]2(c3ccccc3)[C@@H](c3ccccc3)[C@]12c1ccccc1 [Compound 4b] | 2.4 | 1.2 | 1.0 | 25 ± 5 | 9 ± 2 | 34 ± 2 | 18 ± 2 | 30 ± 2 | 21 ± 2 | 55 ± 7 | 21 ± 2 | –
4 | COc1cccc2c1C(=O)c1c(O)c3c(c(O)c1C2=O)C[C@@](O)(C(=O)CO)C[C@@H]3O[C@H]1C[C@H](N)[C@H](O)[C@H](C)O1 [Doxorubicin, reference compound] | 2.0 | 4.8 | 0.5 | – | – | – | – | – | – | – | – | IC50 ([1]; Homo sapiens, K562, MTS, 24 h, read-out: IC50, K562, 24 h): 16 ± 3 µM; IC50 ([1]; Homo sapiens, K562, MTS, 72 h, read-out: IC50, K562, 72 h): 1.2 ± 0.3 µM; IC50 ([2]; Homo sapiens, HeLa, MTS, 24 h, read-out: IC50, HeLa, 24 h): 4 ± 1 µM; IC50 ([2]; Homo sapiens, HeLa, MTS, 72 h, read-out: IC50, HeLa, 72 h): 0.5 ± 0.1 µM; IC50 ([3]; Mus musculus, CT26, MTS, 24 h, read-out: IC50, CT26, 24 h): 19 ± 3 µM; IC50 ([3]; Mus musculus, CT26, MTS, 72 h, read-out: IC50, CT26, 72 h): 5.5 ± 0.3 µM; IC50 ([4]; Chlorocebus sabaeus, Vero, MTS, 24 h, read-out: IC50, Vero, 24 h): 13 ± 2 µM; IC50 ([4]; Chlorocebus sabaeus, Vero, MTS, 72 h, read-out: IC50, Vero, 72 h): 2.4 ± 0.4 µM
